Drawing on PubChem BioAssay AID1224902, this text covers EC50 for one compound.

The assay concerns PC3 prostate cancer viability, PrestoBlue fluorescence. As to the kind of experiment: antiproliferative effect, PC3 prostate cancer line – cell-based, mTOR inhibitor project, dose response (AID 1224902).

On to `CCOC(Cn1nc(-c2ccc3oc(N)nc3c2)c2c(N)ncnc21)OCC`, for which the EC50 is 0.037 µM.
